Assay results reported in patent US9115143B2, “Substituted indole derivatives as gamma secretase modulators” (Janssen Pharmaceuticals, Inc., priority 2011, dated 2015).

Legend:
Aβtotal [1] = assay: In vivo efficacy B-1a/B-2a: brain soluble Aβtotal in non-transgenic rodents, ELISA; parameters: species or system mouse; settings: dose 30 mg/kg oral dosing, brain soluble fraction, untreated animals (Ctrl) set at 100; for response vs control in vivo at 30 mg/kg: Mus musculus, po, 4 h, read-out: Aβtotal (% vs Ctrl)_Mean
Excerpt: To determine whether acute administration of an Aβ42 lowering agent would reduce Aβ42 levels in vivo, non-transgenic rodents, e.g. mice or rats were used. Animals treated with the Aβ42 lowering agent were examined and compared to those untreated or treated with vehicle and brain levels of soluble Aβ42 and total Aβ were quantitated by standard techniques, for example, using ELISA. Treatment periods varied from hours (h) to days and were adjusted based on the results of the Aβ42 lowering once a time course of onset of effect could be established.
A typical protocol for measuring Aβ42 lowering in vivo is shown but it is only one of many variations that could be used to optimize the levels of detectable Aβ. For example, Aβ42 lowering compounds were formulated in 20% of Captisol® (a sulfobutyl ether of β-cyclodextrin) in water or 20% hydroxypropyl β cyclodextrin. The Aβ42 lowering agents were administered as a single oral dose or by any acceptable route of administration to overnight fasted animals. After 4 h, the animals were sacrificed and Aβ42 levels were analysed.
Blood was collected by decapitation and exsanguinations in EDTA-treated collection tubes. Blood was centrifuged at 1900 g for 10 minutes (min) at 4° C. and the plasma recovered and flash frozen for later analysis. The brain was removed from the cranium and hindbrain. The cerebellum was removed and the left and right hemisphere were separated. The left hemisphere was stored at −18° C. for quantitative analysis of test compound levels. The right hemisphere was rinsed with phosphate-buffered saline (PBS) buffer and immediately frozen on dry ice and stored at −80° C. until homogenization for biochemical assays.
Mouse brains from non-transgenic animals were resuspended in 8 volumes of 0.4% DEA (diethylamine)/50 mM NaCl containing protease inhibitors (Roche-11873580001 or 04693159001) per gram of tissue, e.g. for 0.158 g brain, add 1.264 mL of 0.4% DEA. All samples were homogenized in the FastPrep-24 system (MP Biomedicals) using lysing matrix D (MPBio #6913-100) at 6 m/s for 20 seconds. Homogenates were centrifuged at 20800×g for 5 min and supernatants collected. Supernatants were centrifuged at 221.300×g for 50 min. The resulting high speed supernatants were then transferred to fresh eppendorf tubes. Nine parts of supernatant were neutralized with 1 part 0.5 M Tris-HCl pH 6.8 and used to quantify Aβtotal and Aβ42.
To quantify the amount of Aβtotal and Aβ42 in the soluble fraction of the brain homogenates, Enzyme-Linked-Immunosorbent-Assays were used. Briefly, the standards (a dilution of synthetic Aβ1-40 and Aβ1-42, Bachem) were prepared in 1.5 mL Eppendorf tube in Ultraculture, with final concentrations ranging from 10000 to 0.3 pg/mL. The samples and standards were co-incubated with HRPO-labelled N-terminal antibody JRF/rAμ/2 for Aβ42 detection and with the biotinylated mid-domain antibody 4G8 for Aβtotal detection. 50 μl of conjugate/sample or conjugate/standards mixtures were then added to the antibody-coated plate (the capture antibodies selectively recognize the C-terminal end of Aβ42, antibody JRF/cAβ42/26, for Aβ42 detection and the N-terminus of AB, antibody JRF/rAβ/2, for Aβtotal detection). The plate was allowed to incubate overnight at 4° C. in order to allow formation of the antibody-amyloid complex. Following this incubation and subsequent wash steps the ELISA for Aβ42 quantification was finished by addition of Quanta Blu fluorogenic peroxidase substrate according to the manufacturer's instructions (Pierce Corp., Rockford, Ill.). A reading was performed after 10 to 15 min (excitation 320 nm/emission 420 nm).
For Aβtotal detection, a Streptavidine-Peroxidase-Conjugate was added, followed 60 min later by an additional wash step and addition of Quanta Blu fluorogenic peroxidase substrate according to the manufacturer's instructions (Pierce Corp., Rockford, Ill.). A reading was performed after 10 to 15 min (excitation 320 nm/emission 420 nm). […]

Aβtotal [2] = assay: Screening for γ-secretase-modulating activity: Aβtotal in supernatant of SKNBE2 cells carrying hAPP 695 wild type (Alphalisa); format: cell-based, human; settings: overnight incubation, Alphalisa on supernatant
In short: (§1)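 SKNBE2 human neuroblastoma cells expressing wild-type hAPP 695 (10^4/well) were incubated overnight at 37 °C, 5% CO2 with compound at several concentrations. Supernatant Aβ42 and Aβtotal measured by AlphaLISA sandwich immunoassays; IC50 from 4-parameter fit of percent of untreated control versus log concentration.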

Aβ42 = assay: Screening for γ-secretase-modulating activity: Aβ42 in supernatant of SKNBE2 cells carrying hAPP 695 wild type (Alphalisa); format: cell-based, human; settings: overnight incubation, Alphalisa on supernatant
In short: as §1

[3] = SKNBE2 human neuroblastoma cells carrying hAPP 695 wild type
[4] = Homo sapiens, SKNBE2, SKNBE2 human neuroblastoma cells carrying hAPP 695 wild type

| SMILES | response vs control in vivo at 30 mg/kg (Aβtotal [1]) | IC50 (Aβtotal [2]; [3]) | IC50 (Aβ42; [3]) | IC50 (Aβtotal [2]; [4]) | Aβtotal (% vs Ctrl)_Mean (Aβtotal [1]; 30 mg/kg) | IC50 (Aβ42; [4]) | Aβtotal (% vs Ctrl)_Mean (Aβtotal [1]) | melting point |
| --- | --- | --- | --- | --- | --- | --- | --- | --- |
| Cc1cn(-c2ccc3[nH]c(-c4nc5n(n4)CCCC5c4ccc(F)cc4C)cc3c2)cn1 (single isomer, unassigned) [Compound 77, 8-(4-fluoro-2-methylphenyl)-5,6,7,8-tetrahydro-2-[5-(4-methyl-1H-imidazol-1-yl)-1H-indol-2-yl]-[1,2,4]triazolo[1,5-a]pyridine] | 102% | > 10000 nM | 24 nM | – | – | – | – | – |
| Cc1cc(F)ccc1C1OCCn2cc(-c3cc4nc(-c5cnn(C)c5)ccc4[nH]3)nc21 (single isomer, unassigned) [Compound 102, 8-(4-fluoro-2-methylphenyl)-5,6-dihydro-2-[5-(1-methyl-1H-pyrazol-4-yl)-1H-pyrrolo[3,2-b]pyridin-2-yl]-8H-imidazo[2,1-c][1,4]oxazine] | 121% | > 10000 nM | 89 nM | – | – | – | – | – |
| COc1c(C#N)ccc2[nH]c(-c3nc4n(n3)CCOC4c3c(F)cccc3Cl)cc12 (single isomer, unassigned) [Compound 117, 2-[8-(2-chloro-6-fluorophenyl)-5,6-dihydro-8H-[1,2,4]triazolo[5,1-c][1,4]oxazin-2-yl]-4-methoxy-1H-indole-5-carbonitrile] | 103% | – | 37 nM | > 10000 nM | – | – | – | – |
| Cc1cc(F)ccc1C1CCCn2nc(-c3[nH]c4ccc(C#N)cc4c3F)nc21 (single isomer, unassigned) [Compound 182, 3-fluoro-2-[8-(4-fluoro-2-methylphenyl)-5,6,7,8-tetrahydro[1,2,4]triazolo[1,5-a]pyridin-2-yl]-1H-indole-5-carbonitrile] | 118% | > 10000 nM | 117 nM | – | – | – | – | – |
| Cc1cc(F)ccc1C1CCCn2cc(-c3cc4cc(C#N)ccc4[nH]3)nc21 (stereo not drawn) [Compound 4, 2-[8-(4-fluoro-2-methylphenyl)-5,6,7,8-tetrahydroimidazo[1,2-a]pyridin-2-yl]-1H-indole-5-carbonitrile] | – | – | 87 nM | > 10000 nM | 82 % vs Ctrl | – | – | – |
| COc1c(C#N)ccc2[nH]c(-c3nc4n(n3)CCCC4c3ccccc3C(F)(F)F)cc12 (stereo not drawn) [Compound 7, 4-methoxy-2-[5,6,7,8-tetrahydro-8-[2-(trifluoromethyl)phenyl][1,2,4]triazolo[1,5-a]pyridin-2-yl]-1H-indole-5-carbonitrile] | 96% | – | – | > 10000 nM | – | 35 nM | – | – |
| Cc1cn(-c2ccc3[nH]c(-c4nc5n(n4)CCCC5c4ccccc4C(F)(F)F)cc3c2)cn1 (stereo not drawn) [Compound 8, 5,6,7,8-tetrahydro-2-[5-(4-methyl-1H-imidazol-1-yl)-1H-indol-2-yl]-8-[2-(trifluoromethyl)phenyl]-[1,2,4]triazolo[1,5-a]pyridine] | 86% | – | – | > 10000 nM | – | 46 nM | – | – |
| Cc1cc(F)ccc1C1CCCn2nc(-c3cc4cc(C#N)ccc4[nH]3)nc21 (stereo not drawn) [Compound 10, 2-[8-(4-fluoro-2-methylphenyl)-5,6,7,8-tetrahydro[1,2,4]triazolo[1,5-a]pyridin-2-yl]-1H-indole-5-carbonitrile] | 105% | > 10000 nM | 102 nM | – | – | – | – | – |
| Cc1ccccc1C1CCCn2nc(-c3cc4cc(C#N)ccc4[nH]3)nc21 (stereo not drawn) [Compound 13, 2-[5,6,7,8-tetrahydro-8-(2-methylphenyl)[1,2,4]triazolo[1,5-a]pyridin-2-yl]-1H-indole-5-carbonitrile] | 80% | > 10000 nM | 72 nM | – | – | – | – | – |
| N#Cc1ccc2[nH]c(-c3cn4c(n3)C(c3ccccc3Cl)CCC4)cc2c1 (stereo not drawn) [Compound 16, 2-[8-(2-chlorophenyl)-5,6,7,8-tetrahydroimidazo[1,2-a]pyridin-2-yl]-1H-indole-5-carbonitrile] | 95% | – | – | > 10000 nM | – | 112 nM | – | – |
| Cc1cn(-c2cc3cc(-c4nc5n(n4)CCCC5c4ccccc4C)[nH]c3cn2)cn1 (stereo not drawn) [Compound 30, 5,6,7,8-tetrahydro-2-[5-(4-methyl-1H-imidazol-1-yl)-1H-pyrrolo[2,3-c]pyridin-2-yl]-8-(2-methylphenyl)-[1,2,4]triazolo[1,5-a]pyridine] | 97% | – | – | > 10000 nM | – | 52 nM | – | – |
| Cc1cn(-c2ccc3[nH]c(-c4nc5n(n4)CCOC5c4ccccc4C(F)(F)F)cc3c2)cn1 (stereo not drawn) [Compound 37, 5,6-dihydro-2-[5-(4-methyl-1H-imidazol-1-yl)-1H-indol-2-yl]-8-[2-(trifluoromethyl)phenyl]-8H-[1,2,4]triazolo[5,1-c][1,4]oxazine] | 93% | – | – | 832 nM | – | 48 nM | – | – |
| Cc1cn(-c2ccc3[nH]c(-c4nc5n(n4)CCOC5c4ccc(F)cc4C)cc3c2)cn1 (stereo not drawn) [Compound 39, 8-(4-fluoro-2-methylphenyl)-5,6-dihydro-2-[5-(4-methyl-1H-imidazol-1-yl)-1H-indo-2-yl]-8H-[1,2,4]triazolo[5,1-c][1,4]oxazine] | – | 214 nM | 38 nM | – | – | – | 99 % vs Ctrl | – |
| COc1c(C#N)ccc2[nH]c(-c3nc4n(n3)CCOC4c3ccccc3C(F)(F)F)cc12 (stereo not drawn) [Compound 55, 2-[5,6-dihydro-8-[2-(trifluoromethyl)phenyl]-8H-[1,2,4]triazolo[5,1-c][1,4]oxazin-2-yl]-4-methoxy-1H-indole-5-carbonitrile] | 111% | – | – | > 10000 nM | – | 72 nM | – | – |
| COc1c(C#N)ccc2[nH]c(-c3nc4n(n3)CCCC4c3ccc(F)cc3C)cc12 (stereo not drawn) [Compound 59, 2-[8-(4-fluoro-2-methylphenyl)-5,6,7,8-tetrahydro[1,2,4]triazolo[1,5-a]pyridin-2-yl]-4-methoxy-1H-indole-5-carbonitrile] | 86% | – | – | 3720 nM | – | 25 nM | – | – |
| Cc1cc(F)ccc1C1CCCn2cc(-c3cc4cc(C#N)ccc4[nH]3)nc21 (stereo not drawn) [Compound 63, 2-[8-(4-fluoro-2-methylphenyl)-5,6,7,8-tetrahydroimidazo[1,2-a]pyridin-2-yl]-1H-indole-5-carbonitrile] | – | > 10000 nM | 4470 nM | – | 121 % vs Ctrl | – | – | – |
| Cc1cc(F)ccc1C1CCCn2cc(-c3cc4cc(C#N)ccc4[nH]3)nc21 (stereo not drawn) [Compound 64, 2-[8-(4-fluoro-2-methylphenyl)-5,6,7,8-tetrahydroimidazo[1,2-a]pyridin-2-yl]-1H-indole-5-carbonitrile] | – | > 10000 nM | 68 nM | – | 100 % vs Ctrl | – | – | – |
| COc1c(C#N)ccc2[nH]c(-c3nc4n(n3)CCOC4c3ccc(F)cc3C)cc12 (stereo not drawn) [Compound 114, 2-[8-(4-fluoro-2-methylphenyl)-5,6-dihydro-8H-[1,2,4]triazolo[5,1-c][1,4]oxazin-2-yl]-4-methoxy-1H-indole-5-carbonitrile] | – | > 10000 nM | 32 nM | – | – | – | – | 257.5 °C |
